In patent publication US10517965B2, “Bioorthogonal turn-on probes” (The General Hospital Corporation, priority 2013, dated 2019):

Legend:
[1] = Peak excitation/emission wavelengths and extinction coefficient in PBS; type: physicochemical; conditions: for ε: at peak excitation wavelength in PBS, pH 7.4, in M-1cm-1 (unit assumed); for Peak Em Wavelength: emission; for Peak Ex Wavelength: excitation
Protocol: (§1) Stock solutions of the freshly-purified tetrazine dyes were prepared in MeCN and stored in the dark at 4° C. during experiments. For fluorescence measurements, the probes diluted into 2 mL or 3 mL of phosphate buffered saline (PBS), pH 7.4 (Corning, cellgro) in a standard 10 mm quartz cuvette. Working at peak excitation and emission wavelengths for each probe, data were collected as a continuous time series to enable accurate measurement of the baseline intensity values and optimize signal to noise. Fluorescence experiments were conducted at a range of dye concentrations spanning 100 nM-750 nM, with 500 nM being a typical working concentration. The time to peak turn on ratio (but not the final magnitude) is a function of the added TCOc (see Example 25) concentration; for the time courses presented herein, 10 μM TCOc was used. Measurements of solvent and pre-activation emission intensity for baseline values were collected serially over at least 30 seconds, prior to addition of TCOc to initiate the fluorogenic reaction. After addition of TCOc (typically a 20-fold excess, as above), the fluorescence emission intensity was monitored until a plateau was reached. Activation ratios were calculated from the peak emission intensity of the dihydropyridazine product and the corresponding baseline intensity over background. Data were normalized to set the initial background fluorescence of the HELIOS probe to one unit over background, as plotted in FIG. 9 in the main text.
(§2) Microscope: Multichannel images were collected on an Olympus Fluoview FV1000 confocal laser microscope. Coumarin probes were excited with a 405 nm laser, with alternate excitation sources used as relevant for reference channels, paired with appropriate emission filter sets. Cell culture: A-431 cells (ATCC CRL-1555) and COS-1 cells (ATCC CRL-1650) were cultivated in Dulbecco's Modified Eagle's Medium (DMEM), supplemented with 10% fetal bovine serum and grown in standard culture conditions in 10 cm dishes. OVCA-429 cells were cultivated in RPMI-1640 supplemented with 10% fetal bovine serum under standard culture conditions. For imaging experiments cells were plated on Millicell EZ slides (EMD Millipore, Inc, Billerica, Mass.). Antibody reagents: Monoclonal antibody-TCO conjugates were prepared by incubation of commercially available monoclonal antibodies TCO-PEG4-NHS (Click Chemistry Tools, Scottsdale, Ariz.). Anti EGFR (Cetuximab, Imclone). Anti cytochrome c oxidase (COXIV, Cell signaling Technology, #4844, Danvers, Mass.). An aliquot of antibody in the manufacturer-supplied storage solution was buffer exchanged into PBS with 10 mM sodium bicarbonate, pH 8.0, on a 40K ZebaSpin desalting column (0.5 mL, Thermo Fisher Scientific, Rockford, Ill.). To this solution was added 20 equivalents of TCO-PEG4-NHS; the mixture was allowed to react at 25° C. for 30 minutes, with continuous shaking. The reaction mix was loaded onto a 40K ZebaSpin column to remove organic solvent and small molecule fractions; this eluate was loaded onto a second 40K ZebaSpin column to ensure comprehensive removal of any excess TCO. EGFR Imaging: Fixed A431 cells were prepared by treatment with 4% paraformaldehyde solution (10 min, room temperature), followed by 3 washes with PBS. Fixed cells were stored at 4° C. until the time of imaging, when they were incubated for 20 minutes with 20 μg/mL cetuximab-TCO, then rinsed three times with PBS. For optimal image quality, HELIOS 370H probe must be purified on the day of imaging by reversed phase HPLC-MS. The concentration of stock solutions in PBS were calculated by absorbance spectrometry, based on the measured extinction coefficient of 19000 M^−1 cm^−1. Prior to imaging, the purified stock solutions were subjected to turn-on testing, verifying a fluorogenic turn-on ratio of >1000-fold for HELIOS 370H. For imaging experiments, the acetonitrile stocks were diluted into PBS to yield a 100 nM solution. […]

[2] = Fluorogenic characterization of HELIOS probes on reaction with TCOc; type: physicochemical; conditions: for peak turn-on ratio upon reaction with TCOc: PBS; for Fluorescence Enhancement: fluorogenic turn-on ratio of the Me-tetrazines upon reaction with TCOc
Protocol: As described above, the fluorescence purity of all HELIOS compounds was verified by LCMS prior to quantitative activation experiments, for which a fresh aliquot of the fluorophore collected from the analytical HPLC elution was used. Exceptionally pure material is required to obtain the peak measured turn-on ratios, as the presence of trace bright contaminants limits the maximum observable ratio.
as §1

[3] = Quantum yield determination, quinine sulfate reference; type: physicochemical; conditions: dihydropyridazine product after complete reaction with TCOc in PBS pH 7.4; quinine sulfate standard (Φ = 0.546)
From the text: Quantum yield determinations: quinine sulfate dihydrate (Fluorescence Reference Standard grade, AnaSpec, Inc) in 0.5 M H2SO4 was used as a reference, with an excitation wavelength of 370 nm; a value of 0.546 was used for the reference quantum yield (Eaton, D. F., Pure and Applied Chemistry, 1988 60(7), 1107-1114). Calculations were made according to the methods described by Crosby and Demas (Chemical Reviews, 1971, 75(8), 991-1024).

[4] = system: epidermal growth factor receptor (EGFR) on A431 cells; assay: No-wash fluorogenic imaging of EGFR on A431 cells after cetuximab-TCO; type: cell-based, human
From the text: as §2, with “For optimal image quality, HELIOS 370H probe must be purified on the day of imaging by reversed phase HPLC-MS.” left out, “cm^−1.” for “cm^−1. Prior to imaging, the purified stock solutions were subjected to turn-on testing, verifying a fluorogenic turn-on ratio of >1000-fold for HELIOS 370H. For imaging experiments, the acetonitrile stocks were diluted into PBS to yield a 100 nM solution.”

[5] = system: mitochondria of OVCA-429 cells; assay: Mitochondria imaging of OVCA-429 cells after anti-COX IV-TCO; type: cell-based
From the text: as §2, with “For optimal image quality, HELIOS 370H probe must be purified on the day of imaging by reversed phase HPLC-MS.” left out, “cm^−1.” for “cm^−1. Prior to imaging, the purified stock solutions were subjected to turn-on testing, verifying a fluorogenic turn-on ratio of >1000-fold for HELIOS 370H. For imaging experiments, the acetonitrile stocks were diluted into PBS to yield a 100 nM solution.”

[6] = Solvent polarity effects on fluorescence emission of the native probe; type: physicochemical; conditions: PBS pH 7.4, acetonitrile, toluene
Protocol: FIG. 5 provides the absorption and fluorescence emission spectra of 4b in toluene (dielectric constant 2.4) and acetonitrile (dielectric constant 37.5). Samples were prepared by matched dilutions from a concentrated stock solution of 4b. For the fluorescence spectra, the excitation wavelength was offset from peak absorbance in that solvent by 10 nm; in toluene, the excitation wavelength was 496 nm; in acetonitrile,
Fluorescence emission spectra of HELIOS 400Me in PBS (pH 7.4), acetonitrile (dielectric constant 37.5), and toluene (dielectric constant 2.4) was measured (see FIG. 10). Emission spectra are the mean of 2 or 3 scans and the dashed lines represent +/−SEM. Instrument settings were adjusted to optimize sensitivity given the minimal fluorescence of the native HELIOS probe, and samples were prepared by matched dilution of a concentrated stock solution of HELIOS 400Me into the respective solvents. […] J. Meskers, E. H. A. Beckers, S. Chopin, R. A. J. Janssen, J. Phys. Chem. A 2006, 110, 12363].

[7] = Solubility in aqueous media; type: physicochemical; conditions: PBS, micromolar concentrations

Row | ε [1] | Peak Em Wavelength [1] | Peak Ex Wavelength [1] | Φ w/TCOc [3] | SMILES | peak turn-on ratio upon reaction with TCOc [2] | Fluorescence Enhancement [2] | further results
1 | 18,500 | 455 nm | 347 nm | 0.29 | Cc1nnc(-c2cccc(-c3c(C)c4ccc(N)cc4oc3=O)c2)nn1 [HELIOS 347Me] | 2,500 fold | 2,500-fold | 
2 | 20,000 | 482 nm | 388 nm | 0.38 | Cc1nnc(-c2cccc(-c3c(C)c4cc5c(cc4oc3=O)NCCC5)c2)nn1 [HELIOS 388Me] | 11,000 fold | 11,000-fold | 

More lines, now with the values behind:

Row | SMILES | ε [1] | Peak Em Wavelength [1] | Peak Ex Wavelength [1] | Φ w/TCOc [3] | peak turn-on ratio upon reaction with TCOc [2] | Fluorescence Enhancement [2] | further results
3 | Cc1c(-c2cccc(-c3nncnn3)c2)c(=O)oc2c(F)c(O)c(F)cc12 [HELIOS 370H] |  |  |  |  |  |  | staining pattern ([4]; 100 nM in PBS, no wash): bright, membrane specific staining; time until specific staining evident ([4]; 100 nM probe in PBS, fixed A431 cells, cetuximab-TCO): ≤ 10 s; nonspecific binding ([4]; after extended incubation): no nonspecific binding; measured extinction coefficient ([1]; stock solutions in PBS): 19000 M⁻¹ cm⁻¹; fluorogenic turn-on ratio of purified stock prior to imaging ([2]; turn-on testing of freshly purified stock solutions): > 1000 fold
4 | Cc1nnc(-c2cccc(-c3c(C)c4cc(F)c(O)c(F)c4oc3=O)c2)nn1 [HELIOS 370Me] | 19,000 | 463 nm | 370 nm | 0.49 | 2,900 fold | 2,900-fold | 
5 | Cc1c(-c2cccc(-c3nncnn3)c2)c(=O)oc2cc3c(cc12)CCCN3 [HELIOS 388H] |  |  |  |  |  |  | time until mitochondrial labeling evident ([5]; 100 nM, fixed and permeabilized OVCA-429 cells): ≤ 2 min; colocalization with mitochondria-specific RFP ([5]; OVCA-429 cells expressing RFP): good colocalization; target to background ratio over time ([5]; serial images up to an hour from dye addition): stable target to background ratios
6 | Cc1nnc(-c2cccc(-c3c(C)c4cc5c6c(c4oc3=O)CCCN6CCC5)c2)nn1 [HELIOS 400Me] |  |  |  |  | 4,000 fold |  | dependence of fluorescence emission intensity on solvent polarity [6]: largely independent of solvent polarity; Solubility in phosphate buffered saline [7]: soluble
7 | Cc1nnc(-c2ccc(-c3c(C)c4cc5c6c(c4oc3=O)CCCN6CCC5)cc2)nn1 [HELIOS 400pMe] |  |  |  |  | 1,000 fold |  | Solubility in phosphate buffered saline [7]: soluble
8 | Cc1c(CC(=O)NCc2ccc(-c3nncnn3)cc2)c(=O)oc2c(F)c(O)c(F)cc12 [Marina Blue-Tz, reference compound] |  | 459 nm | 362 nm |  | 60 fold | 60-fold | 
